Laboratory results as given in patent US6566129B1, “Transformed cells useful for the control of pests” (University of Florida Research Foundation, Inc., priority 1999, dated 2003).
Square brackets hold non-standard residues; d marks the D form. Ends that are not written are not given here. Peptide text beside a SMILES is read from it.

Key:
Type in all cases: in vivo
Aedes aegypti larvae [1] = experiment: Effect of TMOF and its analogue peptides on mosquito larvae (feeding, LD50); settings: newly hatched larvae on autoclaved yeast 1 mg/ml, microtiter plates, 7 days
Excerpt: TMOF can traverse the gut epithelium, enter the hemolymph and bind a gut receptor (Borovsky, D. and F. Mahmood (1995) “Feeding the mosquito Aedes aegypti with TMOF and its analogs; effect on trypsin biosynthesis and egg development,” Regulatory Peptides57:273-281; Borovsky, et al. (1994) “Characterization and localization of mosquito-gut receptors for trypsin modulating oostatic factor using complementary peptide immunochemistry” FASEB J. 8:350-355.). […] To find out if truncated TMOF peptides have an effect on larval growth and development, a series of peptides were synthesized and tested by feeding them to mosquito larvae at concentrations of 0 to 5.0 mg/ml (Table 3). Individual, newly hatched Aedes aegypti larvae were maintained in separate microtiter wells on a diet of autoclaved yeast (1 mg/ml). The diet was supplemented with TMOF peptides (Table 3). An identical number of larvae maintained on yeast served as a control. […] All control groups survived and larval growth and development was normal. Since larvae swallow only a small portion of the yeast particles that adsorbed the peptides, it is assumed that approximately 1 to 20 ng are taken orally at the high concentrations.

trypsin biosynthesis = experiment: Effect of injected TMOF-R analogues on trypsin biosynthesis in Heliothis virescens (BApNA); settings: 2nd instar larvae, 24 hours after injection
Procedure: Individual second instar larvae of H. virescens were injected with TMOF-R analogues (10 to 0.25 μg per larva) and maintained in separate plastic cups on artificial diet. Twenty-four hours after the injections 3 groups of larvae (3 per group) were assayed for trypsin biosynthesis using BApNA (trypsin specific substrate; Table 5).

Aedes aegypti larvae [2] = experiment: Effect of feeding TMOF-R analogues on Aedes aegypti larvae (LC50); settings: fed in microtiter plates with yeast particles for 5 to 6 days; read-out: LC50 (mM ± S.E.M.)
Procedure: TMOF analogues (5 to 8 amino acids in length, and polymers of these analogues) in which Arg was added at the C-terminus were evaluated to determine their effect on larval growth and development. A series of analogues were synthesized and tested by feeding them to mosquito larvae at concentrations of (0.5 to 5.0 mg/ml; Table 4). Concentrations of 2.0 to 0.065 mg/ml were used to feed mosquito larvae and calculate the Lethal Dose at 50% mortality (LD50; Table 4) of the TMOF analogues. […] In both cases larval death and trypsin biosynthesis inhibition was noted (Table 4 and 5). […] The advantage of using short analogues connected by Arg is that they can be digested in the gut into short TMOF analogues that can penetrate the midgut much faster than longer analogues.
Individual, newly hatched Aedes aegypti larvae were maintained in separate microtiter wells on a diet of autoclaved yeast (1 mg/ml). The diet was supplemented with TMOF analogues (Table 4). An identical number of larvae were maintained on yeast served as a control. […] All control groups survived and larval growth and development were normal. Larvae that were fed TMOF analogues had increased mortality, particularly when the larvae where fed the concentrations of the analogues higher than 2 mg/ml (Table 4).
Since larvae swallow only a small portion of the yeast particles that adsorbed the analogues it is assumed that approximately I to 20 ng are taken orally at the high concentrations. Using the various concentrations a lethal concentration that caused 50% mortality (LC50) for the mosquito larvae was calculated (Table 4). The results presented in Table 4 clearly indicate that the short TMOF-R analogues are very effective, especially the (DPAR)4 (SEQ ID NO. 61) polymer that is broken into 4 DPARs (SEQ ID NO. 60) in the gut.

| Compound | LD50 mM ± S.E.M. (Aedes aegypti larvae [1]) [mM] | also measured |
| --- | --- | --- |
| C[C@H](NC(=O)[C@@H]1CCCN1C(=O)[C@H](CC(=O)O)NC(=O)[C@H](N)Cc1ccc(O)cc1)C(=O)N1CCC[C@H]1C(=O)O [(D)YDPAP] (H-[dY]DPAP-OH; N-terminus and C-terminus assumed) | 0.56 ± 0.03 | – |
| N[C@H](Cc1ccc(O)cc1)C(=O)N[C@@H](CC(=O)O)C(=O)N1CCC[C@H]1C(=O)O [(D)YDP] (H-[dY]-Asp-Pro-OH; N-terminus and C-terminus assumed) | 0.51 ± 0.05 | – |
| C[C@H](N)C(=O)N[C@@H](C)C(=O)N1CCC[C@H]1C(=O)O [AAP] (H-Ala-Ala-Pro-OH; N-terminus and C-terminus assumed) | 1.08 ± 0.07 | – |
| C[C@H](N)C(=O)N[C@@H](CC(=O)O)C(=O)N1CCC[C@H]1C(=O)O [ADP] (H-Ala-Asp-Pro-OH; N-terminus and C-terminus assumed) | >6.6 | – |
| C[C@H](N)C(=O)N1CCC[C@H]1C(=O)N[C@@H](C)C(=O)O [APA] (H-Ala-Pro-Ala-OH; N-terminus and C-terminus assumed) | 1.0 ± 0.07 | – |
| C[C@H](NC(=O)[C@H](C)NC(=O)[C@@H](N)CC(=O)O)C(=O)O [DAA] (H-Asp-Ala-Ala-OH; N-terminus and C-terminus assumed) | 0.91 ± 0.06 | – |
| C[C@H](NC(=O)[C@@H]1CCCN1C(=O)[C@@H](N)CC(=O)O)C(=O)N[C@@H](CCCNC(=N)N)C(=O)O [DPAR] (H-DPAR-OH) | – | Inhibition (% ± S.E.M.) of trypsin biosynthesis (trypsin biosynthesis; 1 μg/injection): 17 ± 2%; Inhibition (% ± S.E.M.) of trypsin biosynthesis (trypsin biosynthesis; 10 μg/injection): 100%; LC50 (Aedes aegypti larvae [2]): 0.46 ± 0.014 mM |
| C[C@H](NC(=O)[C@@H]1CCCN1C(=O)[C@@H](N)CC(=O)O)C(=O)O [DPA] (H-Asp-Pro-Ala-OH) | 0.4 ± 0.03 | – |
| N[C@@H](CC(=O)O)C(=O)N[C@@H](Cc1ccc(O)cc1)C(=O)N1CCC[C@H]1C(=O)O [DYP] (H-Asp-Tyr-Pro-OH; N-terminus and C-terminus assumed) | 1.27 ± 0.17 | – |
| N[C@@H](CC(=O)O)C(=O)N[C@@H](Cc1ccc(O)cc1)C(=O)O [DY] (H-Asp-Tyr-OH; N-terminus and C-terminus assumed) | 3.0 ± 0.8 | – |
| C[C@H](NC(=O)[C@@H](N)Cc1ccccc1)C(=O)N1CCC[C@H]1C(=O)O [FAP] (H-Phe-Ala-Pro-OH; N-terminus and C-terminus assumed) | 3.8 ± 0.23 | – |
| N[C@@H](Cc1ccccc1)C(=O)N[C@@H](CC(=O)O)C(=O)N1CCC[C@H]1C(=O)O [FDP] (H-Phe-Asp-Pro-OH; N-terminus and C-terminus assumed) | 1.98 ± 0.6 | – |
| N[C@@H](Cc1ccccc1)C(=O)N[C@@H](CO)C(=O)N1CCC[C@H]1C(=O)O [FSP] (H-Phe-Ser-Pro-OH; N-terminus and C-terminus assumed) | 2.3 ± 0.13 | – |
| C[C@H](NC(=O)[C@H](C)NC(=O)[C@@H]1CCCN1)C(=O)O [PAA] (H-Pro-Ala-Ala-OH; N-terminus and C-terminus assumed) | 2.4 ± 0.34 | – |
| C[C@H](NC(=O)[C@@H]1CCCN1)C(=O)N1CCC[C@H]1C(=O)O [PAP] (H-Pro-Ala-Pro-OH; N-terminus and C-terminus assumed) | 3.17 ± 0.14 | – |
| C[C@H](NC(=O)[C@@H]1CCCN1C(=O)[C@@H](CC(=O)O)NC(=O)[C@@H](N)Cc1ccc(O)cc1)C(=O)N1CCC[C@H]1C(=O)O [Y(D)DPAP] (H-Y[dD]PAP-OH; N-terminus and C-terminus assumed) | 1.2 ± 0.3 | – |
| N[C@@H](Cc1ccc(O)cc1)C(=O)N[C@H](CC(=O)O)C(=O)N1CCC[C@H]1C(=O)O [Y(D)DP] (H-Tyr-[dD]-Pro-OH; N-terminus and C-terminus assumed) | 0.28 ± 0.01 | – |
| C[C@H](NC(=O)[C@@H](N)Cc1ccc(O)cc1)C(=O)N1CCC[C@H]1C(=O)O [YAP] (H-Tyr-Ala-Pro-OH; N-terminus and C-terminus assumed) | 2.3 ± 0.5 | – |
| C[C@H](NC(=O)[C@H](CC(=O)O)NC(=O)[C@@H](N)Cc1ccc(O)cc1)C(=O)O [YDA] (H-Tyr-Asp-Ala-OH; N-terminus and C-terminus assumed) | 1.6 ± 0.13 | – |
| N[C@@H](Cc1ccc(O)cc1)C(=O)N[C@@H](CC(=O)O)C(=O)N[C@@H](Cc1ccccc1)C(=O)O [YDF] (H-Tyr-Asp-Phe-OH; N-terminus and C-terminus assumed) | 0.97 ± 0.11 | – |
| N[C@@H](Cc1ccc(O)cc1)C(=O)N[C@@H](CC(=O)O)C(=O)NCC(=O)O [YDG] (H-Tyr-Asp-Gly-OH; N-terminus and C-terminus assumed) | 0.95 ± 0.11 | – |
| N=C(N)NCCC[C@H](NC(=O)[C@@H]1CCCN1C(=O)[C@H](CC(=O)O)NC(=O)[C@@H](N)Cc1ccc(O)cc1)C(=O)O [YDPR] (H-YDPR-OH; N-terminus and C-terminus assumed) | – | LC50 (Aedes aegypti larvae [2]): 0.24 ± 0.026 mM |
| N[C@@H](Cc1ccc(O)cc1)C(=O)N[C@@H](CC(=O)O)C(=O)N1CCC[C@H]1C(=O)O [YDP] (H-Tyr-Asp-Pro-OH; N-terminus and C-terminus assumed) | 2.3 ± 0.4 | – |
| N[C@@H](Cc1ccc(O)cc1)C(=O)N[C@@H](CC(=O)O)C(=O)O [YD] (H-Tyr-Asp-OH; N-terminus and C-terminus assumed) | 1.24 ± 0.06 | – |
| N[C@@H](Cc1ccc(O)cc1)C(=O)N[C@@H](CO)C(=O)N[C@@H](Cc1ccccc1)C(=O)O [YSF] (H-Tyr-Ser-Phe-OH; N-terminus and C-terminus assumed) | 1.08 ± 0.12 | – |

| Compound | LD50 mM ± S.E.M. (Aedes aegypti larvae [1]) [mM] | also measured |
| --- | --- | --- |
| ADPAP [ADPAP] | 2.0 ± 0.36 | – |
| DPARDPARDPARDPAR [(DPAR)4] | – | Inhibition (% ± S.E.M.) of trypsin biosynthesis (trypsin biosynthesis; 0.5 μg/injection): 3 ± 0.3%; Inhibition (% ± S.E.M.) of trypsin biosynthesis (trypsin biosynthesis; 1 μg/injection): 35 ± 7%; Inhibition (% ± S.E.M.) of trypsin biosynthesis (trypsin biosynthesis; 10 μg/injection): 58 ± 36%; LC50 (Aedes aegypti larvae [2]): 0.048 ± 0.002 mM |
| FDPAP [FDPAP] | 0.37 ± 0.15 | – |
| MPDYPPPPP [MPDYP5] | >3.0 | – |
| YAPAP [YAPAP] | 0.54 ± 0.13 | – |
| YDAAP [YDAAP] | 1.0 ± 0.18 | – |
| YDFAP [YDFAP] | 0.74 ± 0.13 | – |
| YDLAP [YDLAP] | 0.6 ± 0.05 | – |
| YDPAA [YDPAA] | 1.6 ± 0.13 | – |
| YDPAF [YDPAF] | 0.33 ± 0.2 | – |
| YDPAFR [YDPAFR] | – | Inhibition (% ± S.E.M.) of trypsin biosynthesis (trypsin biosynthesis; 10 μg/injection): 0 ± 0%; LC50 (Aedes aegypti larvae [2]): 0.15 ± 0.023 mM |
| YDPAL [YDPAL] | 0.52 ± 0.03 | – |
| YDPAP [YDPAP, reference compound] | 1.64 ± 0.03 | – |
| YDPAPPPPPP [YDPAP6, reference compound] | 0.2 ± 0.02 | Inhibition (% ± S.E.M.) of trypsin biosynthesis (trypsin biosynthesis; 0.25 μg/injection): 19.5 ± 0.7%; Inhibition (% ± S.E.M.) of trypsin biosynthesis (trypsin biosynthesis; 0.5 μg/injection): 11 ± 1%; Inhibition (% ± S.E.M.) of trypsin biosynthesis (trypsin biosynthesis; 1 μg/injection): 25 ± 2%; Inhibition (% ± S.E.M.) of trypsin biosynthesis (trypsin biosynthesis; 10 μg/injection): 56%; LC50 (Aedes aegypti larvae [2]): 0.2 ± 0.02 mM |
| YDPAPPPPPPR [YDPAP6R] | – | LC50 (Aedes aegypti larvae [2]): > 71.6 mM |
| YDPAPR [YDPAPR] | – | Inhibition (% ± S.E.M.) of trypsin biosynthesis (trypsin biosynthesis; 0.25 μg/injection): 11 ± 1%; Inhibition (% ± S.E.M.) of trypsin biosynthesis (trypsin biosynthesis; 0.5 μg/injection): 14 ± 1%; Inhibition (% ± S.E.M.) of trypsin biosynthesis (trypsin biosynthesis; 1 μg/injection): 31.5 ± 2%; Inhibition (% ± S.E.M.) of trypsin biosynthesis (trypsin biosynthesis; 10 μg/injection): 53 ± 25%; LC50 (Aedes aegypti larvae [2]): 0.24 ± 0.02 mM |
| YDPAR [YDPAR] | – | Inhibition (% ± S.E.M.) of trypsin biosynthesis (trypsin biosynthesis; 0.5 μg/injection): 1 ± 0.07%; Inhibition (% ± S.E.M.) of trypsin biosynthesis (trypsin biosynthesis; 1 μg/injection): 39 ± 2%; Inhibition (% ± S.E.M.) of trypsin biosynthesis (trypsin biosynthesis; 10 μg/injection): 33.5 ± 9%; LC50 (Aedes aegypti larvae [2]): 0.12 ± 0.07 mM |
| YDPFP [YDPFP] | 1.7 ± 0.4 | – |
| YDPGP [YDPGP] | 1.1 ± 0.18 | – |
| YDPLP [YDPLP] | 1.5 ± 0.04 | – |
| YEPAP [YEPAP] | 0.35 ± 0.02 | – |
| YFPAP [YFPAP] | 0.64 ± 0.03 | – |
| YNPAP [YNPAP] | 0.55 ± 0.03 | – |
| YSPAP [YSPAP] | 1.4 ± 0.03 | – |
